Test results reported in patent US12116611B2, “Method of treating intellectual disability, autism and epilepsy associated with an IQSEC2 mutation and for identifying medicaments for treating the same” (TECHNION RESEARCH & DEVELOPMENT FOUNDATION LIMITED, priority 2018, dated 2024).
pEC50, pKd: −log10 of the molar value. Values joined by “and” are separate entries in the source; they are usually repeats but may differ in a detail not shown here. Identical values can stand only once. “Also recorded” adds a separate entry of the source. Like-named read-outs stand apart in the source and are kept apart here.

Legend:
[1] = tested on: calmodulin-IQSEC2 interaction; experiment: Binding of luciferase-IQSEC2 to calmodulin-sepharose in vitro; set-up: species or system human; details: for pEC50: read-out: Free calcium concentration for half-maximal binding of calcium-calmodulin to IQSEC2
Experimental: The binding of wild type and mutant IQSEC2 to calmodulin was assessed in vitro using calmodulin-sepharose (BioVision, Milipetas, CA). Extracts from stably transfected cells were prepared in either buffer A [50 mM Tris pH 7.5; 150 mM NaCl, 10 mg/ml BSA; 5 mM EGTA and 0.1% Triton X-100] or buffer B [10 mM Tris pH 7.5; 150 mM NaCl, 5 mM EGTA, 5% glycerol, 0.5% Triton X-100]. Extracts were clarified by centrifugation at 14000 rpm at 4° C. to remove insoluble debris and the amount of luciferase activity in the extract assessed using the Promega luciferase assay system and a Turner TD 20/20 luminometer. Extracts (10,000-100,000 luciferase units) were then incubated in buffer A or buffer B with or without CaCl2 in a total volume of 1 cc. The concentration of free calcium in the incubation conditions was calculated using the maxchelator algorithm (maxchelator.stanford.edu) which is based on the ionic strength, pH, temperature and dissociation constant of EGTA for calcium. The concentration of free calcium used in these studies ranged from 0.73 nM to 2 mM. 10 μl of calmodulin-sepharose was added to the incubation and mixed on a rotary apparatus for 3-4 hours. The calmodulin-sepharose was washed twice with binding buffer, resuspended in 100 μl of luciferase reagent lysis buffer and 20 μl was assessed for luciferase activity.
Investigation of this interaction in a cell-free system in vitro using luciferase tagged IQSEC2 and calmodulin coupled to sepharose allowed for the precise control of calcium concentration which is known to dramatically affect the conformation and interactions of calmodulin with other proteins. In this system luciferase activity associated with calmodulin sepharose was used a quantitative readout of the calmodulin-IQSEC2 interaction. The IQ motif is present in over 100 proteins and in some cases preferentially binds to calcium-calmodulin while in other cases it binds preferentially to calcium-free calmodulin (apocalmodulin) (Bahler and Rhoads, 2002). […] However, when the effect of calcium on the IQSEC2 calmodulin interaction was assessed, it was observed that calcium increased the binding of calmodulin to IQSEC2. Upon reviewing the buffers used by the research group in assessing binding of IQSEC2 to calmodulin, it was discovered that the concentration of Triton X-100 used in the binding and wash buffers was differed. […] Triton X-100 binds to most proteins via both hydrophobic and polar interactions [Singh and Kishore, 2006] and may thereby disrupt protein-protein interactions at high concentrations. […] The binding of wild type or A350V luciferase-IQSEC2 to calmodulin was assessed over a wide range of calcium concentrations.

calmodulin = calmodulin (Homo sapiens, UniProt P0DP23); details: Persechini and Cronk et al, 1999; read-out: Kd of calcium for calmodulin; cited from earlier work
endogenous Arf6 = experiment: Arf6-GTP GGA3 pulldown assay in transfected HEK293T cells, with or without ionomycin; assay type: cell-based, human
Experimental: For the assessment of Arf6-GTP using a GGA-3 pulldown assay and western blot, HEK293T cells were transfected with FLAG-tagged WT, A350V, or R359C IQSEC2 in pCAGGS vector by calcium phosphate. Twenty-four hours after transfection, the cultures were treated with 5 μM ionomycin or ethanol vehicle for 5 mins, then lysed in 50 mM Tris-HCl, pH 7.5, 100 mM NaCl, 2 mM MgCl2, 0.2% SDS, 0.5% sodium deoxycholate, 1% Triton X-100, 10% glycerol, and 1× Halt protease inhibitor cocktail. An Arf6-GTP pull-down assay was carried out as described (Shoubridge et al, 2010). Briefly, lysates were cleared by centrifugation at 10,000 rpm for 10 min and incubated with GGA3:GST on glutathione-sepharose beads for 5 hours at 4° C. The beads were washed and bound proteins were eluted and probed by immunoblot with rabbit anti-Arf6 (1:750, Cell Signaling #5740). Lysates were also probed against total Arf6 and with rabbit anti-FLAG (1:1000; Covance #PRB-132P) to detect expression of FLAG-IQSEC2. Bands were visualized with the use of a LiCor Odyssey imaging system and quantified with Image Studio Lite. Each band was normalized to the untreated sham-transfected control. The data were statistically analyzed by one-way ANOVA followed by Tukey's Multiple Comparison Test for post-hoc analysis.
The activation of Arf6 (Arf6-GTP) by wild type, A350V, or R359C IQSEC2 in a GGA3 pulldown assay was also assessed. HEK 293T cells were transiently transfected with constructs to express either wild type, A350V or R359C IQSEC2, and endogenous Arf6 activation was tested with or without treatment with the calcium ionophore ionomycin. […] Cell lysates were incubated with beads coated with GGA3:GST to isolate the GTP-bound Arfs, and bound Arf6 was assessed by immunoblot (FIG. 4A).

SMILES	Change in binding of calmodulin to wild type IQSEC2 ([1]; 100 μM calcium, high (0.5%) Triton X-100)	Change in binding of calmodulin to wild type IQSEC2 ([1]; 100 uM calcium, low (0.1%) Triton X-100)	pEC50 ([1]; A350V IQSEC2, 0.1% Triton X-100)	pEC50 ([1]; wild type IQSEC2, 0.1% Triton X-100)	pKd (calmodulin)	Effect of ionomycin on Arf6 activation (endogenous Arf6; HEK293T cells transfected with A350V IQSEC2)	Effect of ionomycin on Arf6-GTP induction (endogenous Arf6; HEK293T cells transfected with R359C IQSEC2)	Arf6 activation (Arf6-GTP) compared to sham transfected cells (endogenous Arf6; HEK293T cells transfected with wild type IQSEC2, 5 μM ionomycin for 5 mins) [fold increase]
[Ca+2] [calcium]	several fold decrease; also recorded: significant decrease	several fold increase; also recorded: significant increase	~6.00	~6.00	6.00 and ~6.00			
C[C@H](CCC(=O)O)C[C@H](C)C[C@H](C)C(=O)/C=C(\O)[C@H](C)C[C@H](C)C/C=C/[C@@H](C)[C@@H](O)[C@@H](C)[C@@H](O)C[C@@H]1CC[C@@](C)([C@H]2CC[C@@](C)([C@@H](C)O)O2)O1 [ionomycin]						did not further increase Arf6 activation	unresponsive	8.03±1.89
